system: AMPA receptor; conditions: Table 1; primary culture of rat embryo cerebral cortex nerve cells, 2 μM AMPA, 1 μM MK-801
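Note: primary rat embryonic cortical neurons grown on an astrocyte layer in 96-well plates, used after at least 8 to 10 days in culture, Fura2-AM fluorescence ratio at 340/380 nm excitation.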

Structure (SMILES)	IC50 [nM]
N#Cc1ccccc1-c1cc(-c2ccccn2)cn(-c2cccc(C(F)(F)F)c2)c1=O [Example 104, 3-(2-Cyanophenyl)-5-(2-pyridyl)-1-(3-trifluoromethylphenyl)-1,2-dihydropyridin-2-one]	200
N#Cc1ccccc1-c1cc(-c2ccccn2)cn(-c2ccsc2)c1=O [Example 105, 3-(2-Cyanophenyl)-5-(2-pyridyl)-1-(thiophen-3-yl)-1,2-dihydropyridin-2-one]	30
N#Cc1ccccc1-c1cc(-c2ccccn2)cn(-c2ccoc2)c1=O [Example 106]	70
Cc1ccc(-n2cc(-c3ccccn3)cc(-c3ccccc3C#N)c2=O)cc1 [Example 107, 3-(2-Cyanophenyl)-5-(2-pyridyl)-1-(4-tolyl)-1,2-dihydropyridin-2-one]	70
N#Cc1ccccc1-c1cc(-c2ccccn2)cn(-c2ccc(C(F)(F)F)cc2)c1=O [Example 108, 3-(2-Cyanophenyl)-5-(2-pyridyl)-1-(4-trifluoromethylphenyl)-1,2-dihydropyridin-2-one]	30
COc1ccc(-n2cc(-c3ccccn3)cc(-c3ccccc3C#N)c2=O)cn1 [Example 109, 3-(2-Cyanophenyl)-5-(2-pyridyl)-1-(2-methoxypyridyn-5-yl)-1,2-dihydropyridin-2-one]	10
N#Cc1ccccc1-c1cc(-c2ccccn2)cn(-c2ccccc2C#N)c1=O [Example 110, 3-(2-Cyanophenyl)-5-(2-pyridyl)-1-(2-cyanophenyl)-1,2-dihydropyridin-2-one]	2000
N#Cc1ccccc1-c1cc(-c2ccccn2)cn(-c2cncnc2)c1=O [Example 111, 3-(2-Cyanophenyl)-5-(2-pyridyl)-1-(pyrimidin-5-yl)-1,2-dihydropyridin-2-one]	400
N#Cc1ccccc1-c1cc(-c2ccccn2)cn(-c2ccc(N3CCCC3)nc2)c1=O [Example 112, 3-(2-Cyanophenyl)-5-(2-pyridyl)-1-[2-(pyrrolidin-1-yl)-pyridin-5-yl]-1,2-dihydropyridin-2-one]	600
N#Cc1ccccc1-c1cc(-c2ccccn2)cn(-c2ccc(N3CCN(Cc4ccccc4)CC3)nc2)c1=O [Example 113, 3-(2-Cyanophenyl)-5-(2-pyridyl)-1-[2-(4-benzylpiperazin-1-yl)-pyridin-5-yl]-1,2-dihydropyridin-2-one]	1200
N#Cc1ccccc1-c1cc(-c2ccccn2)cn(-c2ccc(OCCOCc3ccccc3)nc2)c1=O [Example 114, 3-(2-Cyanophenyl)-5-(2-pyridyl)-1-(2-benzyloxyethoxypyridin-5-yl)-1,2-dihydropyridin-2-one]	600
N#Cc1ccccc1-c1cc(-c2ccccn2)cn(-c2cncc(COCc3ccccc3)c2)c1=O [Example 115, 3-(2-Cyanophenyl)-5-(2-pyridyl)-1-(3-benzyloxymethylpyridin-5-yl)-1,2-dihydropyridin-2-one]	60
CCSc1ccc(-n2cc(-c3ccccn3)cc(-c3ccccc3C#N)c2=O)cn1 [Example 116, 3-(2-Cyanophenyl)-5-(2-pyridyl)-1-(2-ethylthiopyridin-5-yl)-1,2-dihydropyridin-2-one]	200
N#Cc1ccccc1-c1cc(-c2ccccn2)cn(-c2ccncc2)c1=O [Example 117, 3-(2-Cyanophenyl)-5-(2-pyridyl)-1-(4-pyridyl)-1,2-dihydropyridin-2-one]	400
COc1cncc(-n2cc(-c3ccccn3)cc(-c3ccccc3C#N)c2=O)c1 [Example 118, 3-(2-Cyanophenyl)-5-(2-pyridyl)-1-(3-methoxypyridin-5-yl)-1,2-dihydropyridin-2-one]	100
N#Cc1ccccc1-c1cc(-c2ccccn2)cn(-c2ccc(OCCO)nc2)c1=O [Example 119, 3-(2-Cyanophenyl)-5-(2-pyridyl)-1-(2-hydroxyethoxypyridin-5-yl)-1,2-dihydropyridin-2-one]	1700
N#Cc1ccccc1-c1cc(-c2ccccn2)cn(-c2ccc(Cl)nc2)c1=O [Example 120, 3-(2-Cyanophenyl)-5-(2-pyridyl)-1-(2-chloropyridin-5-yl)-1,2-dihydropyridin-2-one]	200
CN1CCN(c2ccc(-n3cc(-c4ccccn4)cc(-c4ccccc4C#N)c3=O)cn2)CC1 [Example 121, 3-(2-Cyanophenyl)-5-(2-pyridyl)-1-[2-(4-methylpiperazin-1-yl)-pyridin-5-yl]-1,2-dihydropyridin-2-one]	600
N#Cc1ccccc1-c1cc(-c2ccccn2)cn(-c2ccc(F)nc2)c1=O [Example 123, 3-(2-Cyanophenyl)-5-(2-pyridyl)-1-(2-fluoropyridin-5-yl)-1,2-dihydropyridin-2-one]	200
CCc1ccc(-n2cc(-c3ccccn3)cc(-c3ccccc3C#N)c2=O)cn1 [Example 124, 3-(2-Cyanophenyl)-5-(2-pyridyl)-1-(2-ethylpyridine-5-yl)-1,2-dihydropyridin-2-one]	700
O=c1c(-c2ccccc2)cc(-c2ccccn2)cn1-c1cccnc1 [Example 127, 3-Phenyl-5-(2-pyridyl)-1-(3-pyridyl)-1,2-dihydropyridin-2-one]	400
COc1ccccc1-c1cc(-c2ccccn2)cn(-c2cccnc2)c1=O [Example 129, 3-(2-Methoxyphenyl)-5-(2-pyridyl)-1-(3-pyridyl)-1,2-dihydropyridin-2-one]	2600
O=Cc1sccc1-c1cc(-c2ccccn2)cn(-c2cccnc2)c1=O [Example 130, 3-(2-Formylthiophen-3-yl)-5-(2-pyridyl)-1-(3-pyridyl)-1,2-dihydropyridin-2-one]	900
O=c1c(-c2ccc(Cl)cc2Cl)cc(-c2ccccn2)cn1-c1cccnc1 [Example 131, 3-(2.4-Dichlorophenyl)-5-(2-pyridyl)-1-(3-pyridyl)-1,2-dihydropyridin-2-one]	3700
O=c1c(-c2ccccc2C(F)(F)F)cc(-c2ccccn2)cn1-c1cccnc1 [Example 132, 3-(2-Trifluoromethylphenyl)-5-(2-pyridyl)-1-(3-pyridyl)-1,2-dihydropyridin-2-one]	3100
O=c1c(-c2ccsc2)cc(-c2ccccn2)cn1-c1cccnc1 [Example 133, 3-(Thiophen-3-yl)-5-(2-pyridyl)-1-(3-pyridyl)-1,2-dihydropyridin-2-one]	300

same assay, conditions: Table 2; suppression of AMPA-induced calcium influx into nerve cells

Structure (SMILES)	IC50 [nM]
Cc1cccc(C)c1-c1cc(-c2ccccn2)cn(-c2cccnc2)c1=O [Example 135, 3-(2,6-Dimethylphenyl)-5-(2-pyridyl)-1-(3-pyridyl)-1,2-dihydropyridin-2-one]	40
NC(=O)c1ccccc1-c1cc(-c2ccccn2)cn(-c2ccccc2)c1=O [Example 140, 3-(2-Aminocarbonylphenyl)-5-(2-pyridyl)-1-phenyl-1,2-dihydropyridin-2-one]	6600
O=c1c(-c2ccccc2O)cc(-c2ccccn2)cn1-c1ccccc1 [Example 141, 3-(2-Hydroxyphenyl)-5-(2-pyridyl)-1-phenyl-1,2-dihydropyridin-2-one]	700
O=c1c(-c2ccccc2O)cc(-c2ccccn2)cn1-c1ccc(F)cc1 [Example 142, 3-(2-Hydroxyphenyl)-5-(2-pyridyl)-1-(4-fluorophenyl)-1,2-dihydropyridin-2-one]	2200
O=c1c(-c2ccccc2Cl)cc(-c2ccccn2)cn1-c1cccc(O)c1 [Example 143, 3-(2-Chlorophenyl)-5-(2-pyridyl)-1-(3-hydroxyphenyl)-1,2-dihydropyridin-2-one]	100

From patent US6949571B2, “1,2-dihydropyridine compounds, process for preparation of the same and use thereof” (Eisai Co., Ltd., priority 2000, dated 2005)
